Data taken from patent US20080280996A1, “Use of Carophyllenes in the Manufacture of Medicaments and Treatment of Bodily Conditions of Inflammation and Inflammatory Pain” (priority 2004, published 2008).

Test system: carrageenin-induced inflammatory nociception in the hind paw
Assay: Inflammatory nociception induced by carrageenin (von Frey filament)
Assay type: in vivo
Conditions: mice, carrageenin 300 μg per paw intraplantar; alpha-humulene 50 mg/kg orally or paracetamol 600 mg/kg orally, 1 h before; evaluated after 3, 4 and 6 hours
Method: The evaluation methodology used in this test is described by Vaz et al. in J. Pharmacol. Exp. Ther. 278:304-312, 1996. Male mice (25-35 g) were systemically (orally) treated with alpha-humulene, 50 mg/kg, administered 1 hour before the experiment. Animals treated with 0.9% saline solution (0.1 ml/10 g) were used as the control. Another group of animals was treated with paracetamol (600 mg/kg, orally, administered 1 h before the treatment), that was used as positive control. For the induction of inflammatory pain, the animals received an intraplantar injection of 0.05 ml of carrageenin (300 μg per paw) at the plantar surface of the right hind paw. […] The nociception was evaluated with a Von Frey filament (0.4 g) after 3, 4 and 6 hours. […] The filament was applied to the right hind paw, complying with the criteria of (1) the application was perpendicular to the plantar surface, with enough pressure to cause the filament to bend, thus obtaining total pressure; (2) the animals were evaluated when the four paws were touching the screen; (3) the paw withdrawal response was considered when the animal removed the paw entirely from the support screen; (4) each animal was stimulated 10 consecutive times, each stimulation lasting 1 second; (5) each paw withdrawal event was considered as 10% of the response, with 10 withdrawal events corresponding to 100% response. […]

Compound: CC(=O)Nc1ccc(O)cc1 [paracetamol, reference compound]
- inflammatory nociception (paw withdrawal response to 0.4 g von Frey filament): reduced the inflammatory nociception
